Test results: patent US10584350B2, “Structurally modified COI1” (Board of Trustees of Michigan State University, priority 2016, dated 2020)

What was measured:
COI1-JAZ9 interaction [1] = test: Quantitative liquid Y2H assays (Beta-Glo, RLU); type: cell-based, Arabidopsis; settings: yeast
Experimental: (§1) Yeast EGY48 strain carrying the p8Op:LacZ reporter plasmid was co-transformed with pGilda:COI1 (or COI1 mutants) and pB42AD:JAZ9 (or other JAZs) (Clontech). Colonies were selected on SD minimal plates (BD Biosciences) supplemented with the—uracil (U)/-tryptophan (W)/-histidine (H) amino acid drop out solution (Clontech). Yeast colonies were cultured overnight in liquid SD-UWH medium, harvested, washed twice in sterile water, and the absorbance (OD600) of the cultures was adjusted to 0.2 in liquid SD galactose/raffinose-UWH medium (BD Biosciences).
For liquid Y2H assays, cultures were supplemented with designated concentrations of JA-Ile (10 or 30 μM), COR (1 μM), or DMSO. After 16-h incubation with ligands, the liquid cultures were processed through the Beta-Glo Assay system (Promega) for detecting the β-galactosidase activity. […] Protein expression in yeast was detected using anti-LexA antibody (1:5,000; Upstate Biotechnology) for detection of COI1 expression from pGilda vector and anti-HA (1:5,000; Roche Life Science) antibody for detection of JAZ9 expression in pB42AD vector.

[2] = test system: COI1WT/A384V-JAZ9 co-receptor; test: Coreceptor pull-down assay; type: binding, Arabidopsis; settings: plant-expressed COI1, E. coli-expressed JAZ9
Experimental: Pull-down assays were performed with protein extracts from 4-mg pCOI1:COI1WT/A384V-4×c-Myc plants and 25 μg recombinant MBP-JAZ9-8×His. Assays were performed in the presence of JA-Ile or COR at various concentrations and incubated for 30 min at 4° C. in the binding buffer (Katsir et al., Proc Natl Acad Sci USA 105(19):7100-7105 (2008)). Eighty microliters of Ni resin (Invitrogen) were added, followed by an additional 15-min incubation period at 4° C. MBP-JAZ9-8×Hisbound Ni resin was washed three times on microcentrifuge spin columns with 0.25 mL binding buffer at 4° C. MBP-JAZ9-8×His was eluted from the resin with 100 μL of 300 mM imidazole. Proteins bound to MBP-JAZ9-8×His were analyzed by immunoblotting for the presence of COI1WT/A384V-4×c-Myc using anti-cMyc antibody. MBP-JAZ9-8×His recovered by the Ni affinity resin was detected by Coomassie blue staining.

root growth = test: Root growth inhibition assays; type: in vivo, Arabidopsis; settings: for concentrations of comparable potency in inhibiting root growth: COI1A384V plants; for concentrations with equivalent effect on root growth inhibition: wild-type Col-0 plants
Experimental: Col-0, segregating COI1-30, transgenic COI1WT, and COI1A384V seeds were surface-sterilized, cold-stratified, and germinated on half-strength MS agar media containing MeJA, COR, or DMSO at the indicated concentrations. Seedlings were grown under long-day light conditions (16-h light at 100 μE·m^2·s, and 8-h dark) for 10-12 days before scanning images of roots. Root lengths were measured using ImageJ software (see website at rsbweb.nih.gov/ij/).

JAZ9 gene expression = test: qPCR of JA-responsive marker gene JAZ9; type: in vivo, Arabidopsis; settings: 10 μM MeJA or 0.2 μM COR, 3 h; for induction of JAZ9 expression compared with that in COI1-30 plants: COI1A384V L1 line; for JAZ9 gene expression in response to treatment compared with Col-0 or COI1WT plants: COI1A384V lines; for JAZ9 gene expression after application: Col-0 and COI1WT plants
Experimental: (§2) Col-0 and transgenic seeds were germinated on half-strength MS medium. Five-day-old seedlings were transferred into liquid half-strength MS medium. Segregating coil-30 seeds were germinated on half-strength MS medium with 10 μM MeJA. and MeJA-resistant 5-d-old seedlings were transferred into liquid half-strength MS medium. Next, 10 μM MeJA (Sigma), 0.2 μM COR or 0.1% DMSO were applied to 12-d-old seedlings. Samples were collected after 3 h and total RNA was extracted using Qiagen RNeasy Mini kit (Qiagen). M-MLV Reverse transcriptase (Life Technologies) and SYBR Green master mix (Life Technologies) were used for reverse-transcription and real-time PCR. Primers used were: […]

COI1-JAZ9 interaction [3] = settings: Y2H; Thines et al., Melotto et al.; cited from earlier work
PR1 gene expression = test: qPCR of SA-responsive gene PR1; type: in vivo, Arabidopsis; settings: plants expressing the protein
Experimental: as §2

SID2 gene expression = test: qPCR of SA-responsive gene SID2; type: in vivo, Arabidopsis; settings: plants expressing the protein
Experimental: as §2

Pst DC3000 = test: Bacterial infection assay, dip-inoculation; type: in vivo, Pseudomonas syringae pv tomato; settings: 3 days after dip-inoculation
Experimental: The Pseudomonas syringae infection assays in Arabidopsis were performed as described by Yao et al. (Methods Mol Biol 1011:63-81 (2013)). In brief, 4- to 5-wk-old (12-h light/12-h dark) Arabidopsis plants were dip-inoculated with bacterial suspension (1×10^8 cfu/mL Pst DC3000 or Psm ES4326 in 0.25 mM MgCl2 solution with 0.025% Silwet-77) or syringe-infiltrated with bacterial suspension (1×10^6 cfu/mL Pst DC3118 or DB29 in 0.25 mM MgCl2 solution). Bacterial growth was determined by serial dilutions of plant extracts 3 or 4 days after inoculation. Homozygous COI1-30 plants were selected by genotyping before bacterial infection.

Spodoptera exigua = test: Insect feeding assays; type: in vivo
Experimental: Insect bioassays were performed as described by Herde et al. (Methods Mol Biol 1011:51-61 (2013)). Briefly, eggs of Spodoptera exigua were obtained from Benzon Research, and four neonate Spodoptera exigua larvae were transferred to the center of each 6-wk-old Arabidopsis host plant. Plants were grown under 8-hour light (100 μE·m^2·s) and 16-h dark and covered with cup cages. Larval weights were determined after 9-12 days of feeding.

COI1-JAZ9 interaction [4] = test: Y2H assays on plates for protein-protein interaction; type: cell-based, Arabidopsis; settings: 10 μM COR, yeast
Experimental: as §1
For Y2H assays on plates, 10-μL culture was spotted onto SD galactose/raffinose-UWH plates with 80 μg/mL X-gal and 10 μM COR (Sigma-Aldrich). Blue color indicated protein-protein interactions after 5-7 days of incubation at 30° C.

## CC[C@H]1C=C(C(=O)N[C@@]2(C(=O)O)C[C@H]2CC)[C@H]2CCC(=O)[C@H]2C1 [COR, coronatine]
COI1-JAZ9 interaction [1]; JA-Ile is a mixture of active and inactive isomers, COR pure
  concentrations equivalent in promoting the COI1-JAZ9 interaction: 0.1 µM
[2]
  higher concentration required for robust formation of the COI1A384V-JAZ9 co-receptor than for the COI1WT-JAZ9 co-receptor: ~100 fold
Root growth; 0.2 μM COR
  less effective in COI A384V than in Col-0 and COI1WT (root growth inhibition): about 100 fold
Root growth
  concentrations of comparable potency in inhibiting root growth: 200 nM
  concentrations with equivalent effect on root growth inhibition: 0.2 µM
JAZ9 gene expression
  induction of JAZ9 expression compared with that in COI1-30 plants: eight-fold
  JAZ9 gene expression in response to treatment compared with Col-0 or COI1WT plants: significantly reduced
  JAZ9 gene expression after application: induced

## CC/C=C\C[C@H]1C(=O)CC[C@@H]1CC(=O)O [JA, jasmonic acid]
COI1-JAZ9 interaction [3]
  activity in yeast: not active

## CC/C=C\CC1C(=O)CCC1CC(=O)OC (stereo not shown) [MeJA, methyl jasmonate]
Root growth
  concentrations of comparable potency in inhibiting root growth: 100 nM
  concentrations with equivalent effect on root growth inhibition: 10 µM
JAZ9 gene expression
  induction of JAZ9 expression compared with that in COI1-30 plants: 38 fold
  JAZ9 gene expression in response to treatment compared with Col-0 or COI1WT plants: less affected
  JAZ9 gene expression after application: induced
COI1-JAZ9 interaction [3]
  activity in yeast: not active

## COI1WT: wild type COI1 (SEQ ID NO:1) expressed in COI1-30-null background; control transgenic lines
PR1 gene expression
  expression of PR1 gene: similarly low
SID2 gene expression
  expression of SID2 gene: similarly low
Pst DC3000
  resistance / susceptibility to Pst DC3000 (bacterial growth and disease symptoms): highly susceptible
Spodoptera exigua; 12-day-old larvae, one-way ANOVA with Dunnett test
  weight of larvae compared with Col-0: No significant difference
Spodoptera exigua; S. exigua neonate larvae
  average weight of larvae feeding on COI1-30 plants higher than larvae reared on these plants: six-fold

B1: R496A: COI1 alanine substitution mutant at R496 (protein)
chain: MEDPDIKRCKLSCVATVDDVIEQVMTYITDPKDRDSASLVCRRWFKIDSETREHVTMALCYTATPDRLSRRFPNLRSLKLKGKPRAAMFNLIPENWGGYVTPWVTEISNNLRQLKSVHFRRMIVSDLDLDRLAKARADDLETLKLDKCSGFTTDGLLSIVTHCRKIKTLLMEESSFSEKDGKWLHELAQHNTSLEVLNFYMTEFAKISPKDLETIARNCRSLVSVKVGDFEILELVGFFKAAANLEEFCGGSLNEDIGMPEKYMNLVFPRKLCRLGLSYMGPNEMPILFPFAAQIRKLDLLYALLETEDHCTLIQKCPNLEVLETRNVIGDRGLEVLAQYCKQLKRLRIERGADEQGMEDEEGLVSQRGLIALAQGCQELEYMAVYVSDITNESLESIGTYLKNLCDFRLVLLDREERITDLPLDNGVRSLLIGCKKLRRFAFYLRQGGLTDLGLSYIGQYSPNVRWMLLGYVGESDEGLMEFSRGCPNLQKLEMAGCCFSERAIAAAVTKLPSLRYLWVQGYRASMTGQDLMQMARPYWNIELIPSRRVPEVNQQGEIREMEHPAHILAYYSLAGQRTDCPTTVRVLKEPI
COI1-JAZ9 interaction [4]
  COR-dependent COI1-JAZ9 interaction: reduced
COI1-JAZ9 interaction [1]; liquid Y2H
  differential effect on JA-Ile-dependent vs COR-dependent COI1-JAZ9 interaction: affect JAIle-dependent interaction more than COR-dependent interaction
